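Interpolation was linear, between the two tested concentrations surrounding the appropriate level; five concentrations were tested over 48 hours in 96-well plates. At the TGI there is no net growth.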
Tests used:
Experiment in all cases: NCI tumour cell line growth inhibition, 48 h
KM20L2 colon = system: KM20L2 colon
DLD-1 colon = system: DLD-1 colon
RXF-631 renal = system: RXF-631 renal
XF 498 CNS = system: XF 498 CNS
SNB-78 CNS = system: SNB-78 CNS
DMS 273 small cell lung = system: DMS 273 small cell lung
DMS 114 small cell lung = system: DMS 114 small cell lung
LXFL 529 NSCLC = system: LXFL 529 NSCLC
M19-MEL melanoma = system: M19-MEL melanoma
P388 leukemia = system: P388 leukemia
P388/ADR leukemia = system: P388/ADR leukemia
SN12K1 renal = system: SN12K1 renal

CCSC(=Nc1ccccc1)SC
TGI (KM20L2 colon): > 100 µM
TGI (DLD-1 colon): > 100 µM
TGI (RXF-631 renal): > 100 µM
TGI (XF 498 CNS): > 100 µM
TGI (SNB-78 CNS): > 100 µM
TGI (DMS 273 small cell lung): > 100 µM
TGI (DMS 114 small cell lung): > 100 µM
TGI (LXFL 529 NSCLC): > 100 µM
TGI (M19-MEL melanoma): > 100 µM

O=C(O)C(Cc1cccs1)NC(=O)C(F)(F)F (stereo unspecified)
TGI (KM20L2 colon): > 100 µM
TGI (DLD-1 colon): > 100 µM
TGI (P388 leukemia): > 100 µM
TGI (P388/ADR leukemia): > 100 µM
TGI (SN12K1 renal): > 100 µM
TGI (DMS 273 small cell lung): > 100 µM
TGI (DMS 114 small cell lung): > 100 µM
TGI (M19-MEL melanoma): > 100 µM

CS(=O)(=O)c1nc(N)nc2nc[nH]c12
TGI (KM20L2 colon): > 100 µM
TGI (DLD-1 colon): > 100 µM
TGI (XF 498 CNS): > 100 µM
TGI (SNB-78 CNS): > 100 µM
TGI (DMS 273 small cell lung): > 100 µM
TGI (DMS 114 small cell lung): > 100 µM
TGI (LXFL 529 NSCLC): > 100 µM
TGI (M19-MEL melanoma): > 100 µM

CC(N)Cc1cccc(C(F)(F)F)c1 (stereo unspecified)
TGI (KM20L2 colon): > 100 µM
TGI (DLD-1 colon): > 100 µM
TGI (RXF-631 renal): > 100 µM
TGI (SNB-78 CNS): > 100 µM
TGI (DMS 273 small cell lung): > 100 µM
TGI (DMS 114 small cell lung): > 100 µM
TGI (LXFL 529 NSCLC): > 100 µM
TGI (M19-MEL melanoma): > 100 µM

C[C@]12CCC3c4ccc(OC(=O)c5ccccc5)cc4CC[C@H]3C1CC[C@@H]2OC(=O)C12OC1CCC2=O (stereo partly specified)
TGI (KM20L2 colon): 11.9 µM
TGI (DLD-1 colon): 6.37 µM
TGI (XF 498 CNS): 11.1 µM
TGI (SNB-78 CNS): 14.1 µM
TGI (DMS 273 small cell lung): 9.52 µM
TGI (DMS 114 small cell lung): 6.7 µM
TGI (LXFL 529 NSCLC): 3.76 µM
TGI (M19-MEL melanoma): 11.3 µM

From PubChem BioAssay (NCI)
